Source: EP0241291B1, “Aryl-substituted naphthyridine and pyridopyrazine derivatives” (SCHERING CORPORATION, priority 1986, dated 1987)

Key:
[1] = test system: Reversed Passive Arthus Response; assay: Reversed Passive Arthus Response (RPAR), paw volume; assay type: in vivo, Male Lewis inbred albino rats; conditions: 25 mg/kg p.o. once daily for 3 days, rats; for Percent Inhibition vs. Control at 2 hrs.: paw volume 2 hours post-challenge; for Percent Inhibition vs. Control at 4 hrs.: paw volume 4 hours post-challenge
Source text: The compounds of this invention are also useful for the treatment of inflammation. Thus, they are useful in the treatment of arthritis, bursitis, tendonitis, gout and other physical conditions characterized by inflammation.
Reversed Passive Arthus Response (RPAR) Animals, Materials and Methods
Male Lewis inbred albino rats weighing 180-200 grams obtained from Charles River Breeding Laboratories are used in these experiments. The rats are housed 3 animals/cage and food and water are allowed ad libitum. The animals are numbered 1-3 in each cage and color marked for identification purposes.
All reagents and drugs are prepared just prior to the study. Crystallized and lyophilized bovine serum albumin (BSA), available from Sigma Chemical Company, is solubilized without shaking in cold, sterile, pyrogenfree saline (10 mg/ml). Lyophilized anti-bovine serum albumin (IgG fraction), obtained from Cappel Laboratories, is suspended in sterile distilled water and diluted with cold, pyrogen-free saline (PFS) just prior to use. The final concentration of anti-bovine serum albumin is 0.5. mg/ml of PFS. Both BSA and anti-BSA solutions are iced during use. Drugs are suspended or solubilized in an aqueous solution of methyl cellulose (MC) with an homogenizer just prior to administration.
Groups of animals (6/group) are dosed with drug in MC by gavage once daily for 3 days. The last dose is administered one hour prior to sensitization with BSA. Controls are given MC alone and a drug-standard is usually included in each assay for verification purposes. Drugs are prepared and diluted so as to provide a dose for a 200 gram animal which is equivalent to the mg/kg dose for each experiment. Thus each rat receives an oral dose in a volume of approximately 2.0 cc. One hour after the last dose the animals are lightly anesthetized with ether and "sensitized" by injection of 0.2 ml of PFS containing 1.0 mg of BSA into the penile vein. One hour later, the animals are "challenged" in the right rear paw with subplantar injections of […] PFS containing 0.1 mg of anti-BSA. Immediately after the subplantar injection, the right paw is dipped (up to the lateral maleolus) into the mercury well of a plethysmograph. The volume of mercury displaced is converted to weight and recorded. This value is considered to be the control reading for the animal. Paw volumes are subsequently recorded with a plethysmograph during the development of the inflammation at 2 and 4 hours post-challenge.
Results are expressed by the change in paw volume (Δ paw volume) from the control reading for each animal to that recorded 2 and 4 hours post-challenge. All drug treated groups are compared to the MC control for significant differences with an analysis of variance. Differences from control in drug-treated groups are expressed as percent change from control in Table II.

[2] = test system: anaphylactic bronchospasm in sensitized guinea pigs; assay: Inhibition of anaphylactic bronchospasm in sensitized guinea pigs with antigen-induced bronchoconstriction; assay type: in vivo, male Hartley guinea pigs; conditions: Cavia porcellus, po; for ED50: 2 hours before challenge with ovalbumin, sensitized guinea pigs, read-out: ED50 (p.o.)-in anaphylactic bronchospasm test
Description: The compounds of this invention may be employed as anti-allergy agents in the treatment of, for example, asthma, allergic or seasonal rhinitis, and/or chronic bronchitis. The anti-allergy method of this invention is identified by tests which measure a compound's inhibition of anaphylactic bronchospasm in sensitized guinea pigs having antigen induced broncho-constriction.
In one such test procedure, male Hartley guinea pigs (250-300 g) are sensitized with 5 mg ovalbumin injected i.p. and 5 mg injected s.c. in 1 ml saline on day 1 and 5 mg ovalbumin injected i.p. on day 4. The sensitized animals are used 3-4 weeks later at which time they weigh 450-500 g.
The sensitized guinea pigs are fasted overnight and the following morning are anesthetized with 0.9 ml/kg i.p. of dialurethane (0.1 g/ml diallybarbituric acid, 0.4 g/ml ethylurea and 0.4 g/ml urethane). The trachea are cannulated and the animals are ventilated by a Harvard® rodent respirator at 50 strokes/minute with a stroke volume of 5 ml. A side arm to the tracheal cannula is connected to a pressure transducer (Harvard) to obtain a continuous measure of intratracheal pressure which is recorded on a polygraph (Harvard). The jugular vein is cannulated for the i.v. administration of substances. The animals are challenged with antigen (0.5% ovalbumin) as an aerosol generated from a DeVilbiss® Model 65 ultrasonic nebulizer and delivered through the tracheal cannula for 30 seconds. Bronchoconstriction is measured as the peak increase in intratracheal pressure occurring within 5 minutes after antigen challenge.
The sensitized guinea pigs are injected i.v. with 1 mg/kg propranolol, 5 mg/kg indomethacin and 2 mg/kg mepyramine given together in a volume of 1 ml/kg. Fifteen minutes later the animals are challenged with nebulized ovalbumin. Test compounds are administered orally 2 hours before challenge with ovalbumin. Suppression of anaphylactic bronchospasm is expressed as a percent inhibition of the peak increase in intratracheal pressure by comparison to a vehicle-treated control group.

[3] = test system: GRAFT VS. HOST REACTION (GVHR); assay: Graft vs. host reaction (GVHR), spleen weight; assay type: in vivo, C57 B1/6XA/J(B6AF1) male mice; conditions: 10 mg/kg orally for 10 days; GVHR mice
Description: To induce a GVHR, C57 B1/6XA/J(B6AF1) male mice were injected intravenously with parental (C57B1/6J) spleen and lymph node cells. The compound 1,2,3,4-tetrahydro-7-phenyl-oxepino[2,3-c][1,8]-naphthyridin-6(7H)-one (Compound A) was then administered orally for 10 days beginning on the day prior to the cell transfer. On the day following the last treatment, the animals were sacrificed, and their spleens were excised and weighed. The enlargement of the spleen of the host is a result of a GVHR. To some extent it is the host's own cells which infiltrate and enlarge the spleen although they do this because of the presence of graft cells reacting against the host. The amount of spleen enlargement, splenonmegaly, is taken as a measure of the severity of the GVHR.
In carrying out the GVHR the animal in the experimental group is injected with parental cells, cells of the same species but of different genotyne, which cause a weight increase of the spleen. […] The effectiveness of Compound A adminstered to the mice in the experimental group is measured by comparing the spleen weight of the untreated and treated GVH animal with that of the syngeneic control. Compound A reduced spleen weight by 61% as compared to the untreated animals at a dose of 10 mg/kg.

[4] = test system: reverse passive Arthus reaction in the pleural cavity of rats; assay: Reverse passive Arthus reaction in the pleural cavity; assay type: in vivo; conditions: Rattus norvegicus, po, method of Myers et al., read-out: ED₅₀ reverse passive Arthus reaction in the pleural cavity
spleen weight = assay: Splenic atrophy test, decrease in spleen weight; assay type: in vivo; conditions: BDF₁ mice
Description: The immunosuppressive activity of the compounds may also be shown by a decrease in spleen weight after dosing BDF₁ mice orally with the drug for seven (7) consecutive days. The mice are sacrificed on the eighth day. The percent decrease in spleen weight is measured for each dosage level. In this procedure (Compound A) provided a 30% spleen weight decrease at a dosage level of 100 mg/kg.

SMILES	Percent Inhibition vs. Control at 2 hrs. [1]	Percent Inhibition vs. Control at 4 hrs. [1]	ED50 [2]	reduced spleen weight as compared to the untreated animals [3]	ED50 [4]	spleen weight decrease (spleen weight; 100 mg/kg orally for seven consecutive days)	ED30 (spleen weight; Mus musculus, oral, seven consecutive days, read-out: ED₃₀ in the splenic atrophy test)	ED30 ([2]; sensitized guinea pigs having antigen-induced bronchoconstriction, read-out: ED₃₀ inhibition of anaphylactic bronchospasm)
O=c1c2c(c3cccnc3n1-c1cccc(Cl)c1)CCCC2 [Compound 1, 5-(3-Chlorophenyl)-7,8,9,10-tetrahydro-benzo[c][1,8]-naphthyridin-6(5H)-one]	64%	30%	2 mg/kg	–	–	–	–	–
O=c1c2c(c3cccnc3n1-c1ccccc1)CCCC2 [Compound 2, 7,8,9,10-Tetrahydro-5-phenyl-benzo[c][1,8]-naphthyridin-6-(5H)-one]	75%	29%	2 mg/kg	–	–	–	–	–
O=c1c2c(c3cccnc3n1-c1cccc(Cl)c1)CCCCO2 [Compound 3, 7-(3-Chlorophenyl)-1,2,3,4-tetrahydro-oxepino[2,3-c][1,8]-naphthyridin-6(7H)-one]	–	–	5 mg/kg	–	–	–	–	–
O=c1c2c(c3cccnc3n1-c1ccccc1)CCCCO2 [Compound 4, 1,2,3,4-tetrahydro-7-phenyl-oxepino[2,3-c][1,8]-naphthyridin-6(7H)-one]	74%	25%	1 mg/kg	61%	~4.5 mg/kg	30%	~100 mg/kg	~0.5 mg/kg
